Laboratory results taken from patent publication US8314079B2, “Hyaluronic acid oligosaccharide fractions and drugs containing the same” (Seikagaku Corporation, priority 2000, dated 2012).

Columns and labels:
PC-12 cells = experiment: Cell death (apoptosis) of PC-12 cells in culture broth without blood serum, trypan blue staining; format: cell-based; details: 100 ng/mL, no blood serum, 24 hours
Experimental: Therefore, each of ΔHA2, HA4, ΔHA4, HA6, ΔHA6, HA8, HA10, HA12, HA84, L4 and L4L4 was added to a culture broth containing PC-12 cells at a concentration of 100 ng/mL (containing no blood serum), 24 hours after, the cells were stained with trypan blue, and a ratio of the number of viable cells (cells not stained with trypan blue) to the total cell number was calculated.

Balb/c mice = experiment: Concanavalin A hepatopathy model; format: in vivo, mouse; details: for average of GPT / average of GOT: 24 hours after ConA 15 mg/kg; for average of GPT: negative control about 5600; for average of GOT: negative control about 6000; for visual inspection of the livers (degree of hepatopathy): compared with negative and positive control solution groups
Experimental: The preparation, concentration, dose, volume to be administered etc. of the test solution are the same as those used in Experiment 1.
As a positive control solution, Stronger Neo-Minophagen C (Minophagen Pharmaceutical) was used at a dose of 5 mg/kg. This dose is the maximum clinical dose of the drug. Moreover, physiological saline was used as a negative control solution.
Balb/c mice of 8-week old were divided into a “negative control solution” administered group (n=12), “HA4 2 mg/kg” administered group (n=12), “HA4 10 mg/kg” administered group (n=12), “HA4 50 mg/kg” administered group (n=12), “positive control solution” administered group (n=12) and “normal” group (n=8).
Concanavalin A (ConA, Sigma) was injected via the caudal vein at a dose of 15 mg/kg. Then, each of the aforementioned solutions was administered via the caudal vein. Thereafter, the mice were bred for 24 hours.
The whole blood was collected from the abdominal aorta, and the GPT activity and GOT activity were measured by a clinical chemistry autoanalyzer (COBAS MIRA S, Nippon Roche). Further, the liver was extracted, and appearance of the liver was evaluated by visual inspection.

HSF1 = experiment: Phosphorylation (activation) of HSF1 in heat-shocked K562 cells, band shift 66 kDa to 81 kDa by SDS-PAGE/Western blotting; format: cell-based, human
From the text: It is known that HSF1 (heat shock factor 1) protein is a transcription factor of Hsp70 (J. Biol. Chem., 271, pp. 3355-3358, 1996). Moreover, the HSF1 protein can be activated by phosphorylation, and this phosphorylation can be detected based on band shift in SDS-polyacrylamide gel electrophoresis (SDS-PAGE) (apparent molecular weight shifts from about 66 kDa to about 81 kDa). By utilizing this fact, the HA oligosaccharides of various sizes were allowed to act on the K562 cells given with stress, and the aforementioned band shift was detected to investigate the degree of the phosphorylation (activation) of HSF1.
HA4, ΔHA4, HA6, HA8, HA2-18 and HA 8-14 were each added to a medium containing the aforementioned cells at a concentration of 1, 10 or 100 ng/mL. Then, the cells were immediately transferred into an environment at 42° C. to be given with heat shock and incubated for 20 minutes. After the incubation, the cells were collected by centrifugation, and SDS-PAGE (gel concentration: 10%) was performed. Thereafter, Western blotting was performed by using anti-HSF1 monoclonal antibodies (produced by Stressgene) as primary antibodies and goat anti-mouse IgG monoclonal antibodies (produced by Jackson Lab) as secondary antibodies to detect the shift of a band of 66 kDa (HSF1 not phosphorylated) to a band of 81 kDa (phosphorylated HSF1).
In order to confirm the reproducibility of Experiment 1, the band shift was detected in the same manner as in Experiment 1 by using HA4, ΔHA4, HA8 and HA84 except that HA was added in a single kind of amount of 100 ng/mL, and the heat shock was given at 43° C. In FIG. 41, the first lane from the left indicates the result obtained with an extract of cells incubated at 37° C. (no addition of HA oligosaccharide), the second lane indicates the result obtained with an extract of cells subjected to 43° C. (no addition of HA oligosaccharide), and the first lane from the right indicates the result of detection of HSF1 (derived from bacteria) as a standard.
In order to investigate whether the action observed in Experiment 2 was specific to the saccharide chain basic structure of HA oligosaccharides, the following comparative experiment was performed by using chondroitin oligosaccharides. […] Therefore, it can be said that Ch is a substance extremely structurally analogous to HA, and the same shall also apply to the oligosaccharides thereof. • Saturated Ch tetrasaccharide (Ch4) • GlcAβ1-3GalNAcβ1-4GlcAβ1-3GalNAc • Saturated Ch hexasaccharide (Ch6) • GlcAβ1-3GalNAcβ1-4GlcAβ1-3GalNAcβ1-4GlcAβ1-3GalNAc • Saturated Ch octasaccharide (Ch8) • GlcAβ1-3GalNAcβ1-4GlcAβ1-3GalNAcβ1-4GlcAβ1-3GalNAcβ1-4GlcAβ1-3GalNAc
The same experiment as Experiment 2 was performed by using these oligosaccharides.

[1] = Experiment 2 (and comparative Experiment 3), 100 ng/mL, heat shock 43° C.

CC(=O)N[C@H]1[C@H](O[C@H]2[C@H](O)[C@@H](O)[C@H](O[C@H]3[C@H](O)[C@@H](CO)OC(O)[C@@H]3NC(C)=O)O[C@@H]2C(=O)O)O[C@H](CO)[C@@H](O)[C@@H]1O[C@@H]1O[C@H](C(=O)O)[C@@H](O)[C@H](O)[C@H]1O.[Na].[Na] (stereo partly drawn) [HA4, sodium β-D-glucopyranosyluronate-(1→3)-2-acetamido-2-deoxy-β-D-glucopyranosyl-(1→4)-(sodium β-D-glucopyranosyluronate)-(1→3)-2-acetamido-2-deoxy-D-glucopyranose]
suppression of cell death (ratio of the number of viable cells to the total cell number) (PC-12 cells): more notably suppressed the cell death | average of GPT (Balb/c mice; 10 mg/kg via the caudal vein): about 2200 I.U./L | average of GOT (Balb/c mice; 10 mg/kg via the caudal vein): about 2000 I.U./L | visual inspection of the livers (degree of hepatopathy) (Balb/c mice; 10 mg/kg): lower degree of hepathopathy | average of GPT (Balb/c mice; 50 mg/kg via the caudal vein): about 1200 I.U./L | average of GOT (Balb/c mice; 50 mg/kg via the caudal vein): about 1000 I.U./L | visual inspection of the livers (degree of hepatopathy) (Balb/c mice; 50 mg/kg): lower degree of hepathopathy | shift of a band of 66 kDa (HSF1 not phosphorylated) to a band of 81 kDa (phosphorylated HSF1) (HSF1; Experiment 1, 1, 10 or 100 ng/mL, heat shock 42° C., 20 minutes): shift to the 81 kDa band was observed depending on the amount of the added HA oligosaccharide | amount of HSF1 per se (HSF1; [1]): amounts of both HSF1 of 66 kDa and 81 kDa per se were also increased | band shift of HSF1 (66 kDa to 81 kDa) (HSF1; [1]): band shift was observed
